Values belong to the compound of their own block, whether it stands above or below them.
What was measured:
[1] = molecular target: T1, HSPG binding to AAP695 /s (Homo sapiens, UniProt P05067); assay: Effect of test compounds on intact HSPG binding to immobilized AAP695 /s (ELISA); conditions: for Activity: binding of intact HSPG, percentage ± SD of control: AAP695 /S, HSPG 2 μg/ml; for HSPG binding, % of control: AAP695
T1 construct: maintained the entire extracellular portion of the AAP; made in house; host or cells: insect cells (recombinant baculovirus)
Description: (§1) The assay comprised immobilizing AAP695 /s which was then exposed to free HSPG in the absence or presence of test compounds. Other aspects of the assay included exposing free HSPG to either immobilized AAP751 /s, or AAP770 /s, each in the absence or presence of test compounds. The assay was also performed with fibronectin as the immobilized protein in order to provide a positive control. In each case, a series of concentrations of HSPG and test compounds was used. Additionally, to determine whether or not the carbohydrate moiety of HSPG was involved in the binding to immobilized components, the carbohydrate moiety of HSPG was removed and assays were performed using the carbohydrate-free HSPG core protein. The test compounds used in experiments described here include heparin, dextran sulfate, chondroitin sulfate, dermatan sulfate, fibronectin, gelatin, bovine serum albumin (BSA), Ca^++ (CaCl2), Mg^++ (MgCl2), Mn^++ (MnCl2), Co^++ (Co(NO3)2), and Zn^++ (ZnCl2).
(§2) The assay used in studying the interaction between HSPG and protein ligands was an ELISA technique. Briefly, polystyrene micro-titer plates (Linbro, Flow Lab Inc.) were coated with a 100 μl solution, containing 1 μg/ml of the protein of interest (one of the three forms of AAP or fibronectin) in 20 mM NaHCO3 buffer pH 9.6. After incubation overnight at 4° C., the plates were rinsed with 0.15M NaCl, 20 mM Tris-Cl pH 7.5 (TBS). The plates were then incubated with 150 μl of 1% BSA in TBS for 2 hours at 37° C. to block the residual hydrophobic surface on the wells. After rinsing with TBS containing 0.05% (w/v) Tween 20 (TBS-Tween), 100 μl of various concentrations of HSPG in TBS-Tween were added. The plates were left overnight at 4° C., to permit maximum binding of HSPG to the coated proteins. The plates were then washed extensively and incubated for 2 hours at 37° C., with 100 μl of anti-HSPG diluted in TBS-Tween containing 0.1% BSA. The plates were washed again and incubated for another 2 hours with 100 μl of goat anti-rabbit-IgG conjugated with alkaline phosphatase (1:2000 dilution) in TBS-Tween containing BSA as above. Finally, after further washing, the bound antibodies were detected by adding an alkaline phosphatase substrate solution (100 μl) containing 2 mg/ml p-nitrophenyl phosphate, 0.1 mM ZnCl2, 1 mM MgCl2 and 100 mM glycine pH 10. The plates were left at room temperature for 15-120 minutes depending on the protein tested. The enzyme reaction was stopped by addition of 50 μl of 2M NaOH. The absorbance of the released p-nitrophenol was measured at 405 nm with a Titertek Multiscan/MCC 340 (Flow Lab. Ltd.). The amounts of HSPG bound were determined by the net OD405 after substracting the OD from the blank wells in which the HSPG incubation step was omitted. When the actual amounts of HSPG bound were to be calculated, a set of standards (0.05-50 ng/well) of HSPG in NaHCO3 buffer were pre-coated into wells on the same plates as the test proteins. The incubations proceeded as described above omitting the incubation of the HSPG solution with the HSPG standard coated wells. The actual amounts of HSPG bound to the test proteins were calculated from the OD405 standard curve produced by the HSPG standards using a Titersoft II E.J.A. software program (Flow Lab. Ltd.).
(§3) Heparin and dextran sulfate, respectively, were each used as test compounds to determine their effect on the HSPG binding to AAP forms and fibronectin. Various concentrations of heparin or dextran sulfate were added together with a constant amount of HSPG to wells coated with AAPs for fibronectin.

[2] = molecular target: T2, HSPG binding to AAP751 /s (Homo sapiens, UniProt P05067); assay: Effect of test compounds on intact HSPG binding to immobilized AAP751 /s (ELISA); set-up: effect of increasing concentration on degree of HSPG binding to AAP751 /s: dose or concentration left out as unconfirmed; conditions: for Activity: binding of intact HSPG, percentage ± SD of control: AAP751 /S, HSPG 2 μg/ml; for HSPG binding, % of control: AAP751
T2 construct: maintained the entire extracellular portion of the AAP; made in house; host or cells: insect cells (recombinant baculovirus)
Description: as §1, §2, §3

[3] = test system: HSPG binding to fibronectin; assay: Effect of test compounds on intact HSPG binding to immobilized fibronectin (ELISA); set-up: species or system bovine; effect of increasing concentration on degree of HSPG binding to fibronectin: dose or concentration left out as unconfirmed; conditions: for Activity: binding of intact HSPG, percentage ± SD of control: Fibronectin, HSPG 2 μg/ml; for inhibition of HSPG binding to immobilized fibronectin: test compound 50 μg/ml; for HSPG binding, % of control: fibronectin
Description: as §1
Fibronectin (from bovine plasma), heparin (grade II from porcine intestinal mucosa, average molecular weight=[…]), heparan sulfate, chondroitin sulfate, dextran sulfate, BSA, and alkaline phosphatase substrate were obtained from Sigma, St. Louis, Mo. Alkaline phosphatase conjugated goat anti-rabbit IgG was obtained from Boehringer-Manneheim, and heparitinase from ICN Biochemicals.
as §2, §3

[4] = test system: HSPG binding to AAP proteins and fibronectin; assay: Effect of test compounds on HSPG binding, stated collectively for the immobilized proteins; conditions: for effect on HSPG binding to any AAP protein tested (negated sentence: 'Neither ... had any effect'): even at 4000 μg/ml
Description: as §1, §2
In addition to test compounds described above, other compounds were tested to determine their effect upon HSPG-AAP binding.

[5] = test compound 500 μg/ml (Table II)

Compound: O=[N+]([O-])[O-].O=[N+]([O-])[O-].[Co+2] [Co (NO3), Co(NO3)2]
Activity: binding of intact HSPG, percentage ± SD of control ([1]; addition 0.1 mM): 97.3 ± 2.5% | Activity: binding of intact HSPG, percentage ± SD of control ([2]; addition 0.1 mM): 91 ± 8.5% | Activity: binding of intact HSPG, percentage ± SD of control ([3]; addition 0.1 mM): 100 ± 14% | effect of divalent metal ion on HSPG binding ([4]; 0.1 mM): unaffected

Compound: [Cl][Mn][Cl] [MnCl2]
Activity: binding of intact HSPG, percentage ± SD of control ([1]; addition 4 mM): 107 ± 18.3% | Activity: binding of intact HSPG, percentage ± SD of control ([2]; addition 4 mM): 106 ± 19.7% | Activity: binding of intact HSPG, percentage ± SD of control ([3]; addition 4 mM): 101.5 ± 9.2% | effect of divalent metal ion on HSPG binding ([4]; 4 mM): unaffected

Compound: Gelatin
Activity: binding of intact HSPG, percentage ± SD of control ([1]; addition 50 μg/ml): 50.5 ± 18.4% | inhibition of HSPG binding to AAP695 /s ([1]; test compound 50 μg/ml): 50% | Activity: binding of intact HSPG, percentage ± SD of control ([2]; addition 50 μg/ml): 60.2 ± 8.3% | inhibition of HSPG binding to AAP751 /s ([2]; test compound 50 μg/ml): 40% | Activity: binding of intact HSPG, percentage ± SD of control ([3]; addition 50 μg/ml): 28.5 ± 16.5% | inhibition of HSPG binding to immobilized fibronectin [3]: 70%

Compound: dermatan sulfate
Activity: binding of intact HSPG, percentage ± SD of control ([1]; addition 4 mg/ml): 121 ± 14% | Activity: binding of intact HSPG, percentage ± SD of control ([2]; addition 4 mg/ml): 127 ± 30% | Activity: binding of intact HSPG, percentage ± SD of control ([3]; addition 4 mg/ml): 107 ± 20.6% | effect on HSPG binding to any AAP protein tested (negated sentence: 'Neither ... had any effect') [4]: had any effect

Compound: dextran sulfate
mode of inhibition of HSPG binding to AAP695 /s [1]: probably competitive | Activity: binding of intact HSPG, percentage ± SD of control ([1]; addition 500 μg/ml): 8.5 ± 2.4% | HSPG binding, % of control ([1]; test compound 31.2 μg/ml): 14% | HSPG binding, % of control ([1]; test compound 62.5 μg/ml): 11% | HSPG binding, % of control ([1]; test compound 125 μg/ml): 9% | HSPG binding, % of control ([1]; test compound 250 μg/ml): 11% | HSPG binding, % of control [1, 5]: 11% | inhibition of HSPG binding to AAP695 /s ([1]; test compound 32 μg/ml): about 85% | mode of inhibition of HSPG binding to AAP751 /s [2]: noncompetitive | Activity: binding of intact HSPG, percentage ± SD of control ([2]; addition 500 μg/ml): 63 ± 8.6% | HSPG binding, % of control ([2]; test compound 31.2 μg/ml): 74% | HSPG binding, % of control ([2]; test compound 62.5 μg/ml): 71% | HSPG binding, % of control ([2]; test compound 125 μg/ml): 67% | HSPG binding, % of control ([2]; test compound 250 μg/ml): 68% | HSPG binding, % of control [2, 5]: 63% | effect of increasing concentration on degree of HSPG binding to AAP751 /s ([2]; concentration increased): did not further decrease | inhibition of HSPG binding to AAP751 /s ([2]; test compound 32 μg/ml): 30% | mode of inhibition of HSPG binding to fibronectin [3]: noncompetitive | Activity: binding of intact HSPG, percentage ± SD of control ([3]; addition 500 μg/ml): 71 ± 10.8% | effect of increasing concentration on degree of HSPG binding to fibronectin ([3]; concentration increased): did not further decrease | HSPG binding, % of control ([3]; test compound 31.2 μg/ml): 67% | HSPG binding, % of control ([3]; test compound 62.5 μg/ml): 70% | HSPG binding, % of control ([3]; test compound 125 μg/ml): 68% | HSPG binding, % of control ([3]; test compound 250 μg/ml): 63% | HSPG binding, % of control [3, 5]: 60% | inhibition of HSPG binding to fibronectin ([3]; test compound 32 μg/ml): 30%

The next lines start with the values.

Activity: binding of intact HSPG, percentage ± SD of control ([1]; addition 4 mM): 92.5 ± 7.7% | Activity: binding of intact HSPG, percentage ± SD of control ([2]; addition 4 mM): 105.5 ± 3.5% | Activity: binding of intact HSPG, percentage ± SD of control ([3]; addition 4 mM): 101.5 ± 2.1% | effect of divalent metal ion on HSPG binding ([4]; 3 mM): unaffected
Compound: [Ca+2].[Cl-].[Cl-] [CaCl2]

Activity: binding of intact HSPG, percentage ± SD of control ([1]; addition 10 mM): 102.5 ± 6.4% | Activity: binding of intact HSPG, percentage ± SD of control ([2]; addition 10 mM): 102.5 ± 7.8% | Activity: binding of intact HSPG, percentage ± SD of control ([3]; addition 10 mM): 105 ± 9.9% | effect of divalent metal ion on HSPG binding ([4]; 10 mM): unaffected
Compound: [Cl-].[Cl-].[Mg+2] [MgCl2]

Activity: binding of intact HSPG, percentage ± SD of control ([1]; addition 0.1 mM): 31 ± 8.1% | inhibition of HSPG binding to AAP695 /s ([1]; test compound 0.1 mM): 70% | Activity: binding of intact HSPG, percentage ± SD of control ([2]; addition 0.1 mM): 85.5 ± 9% | Activity: binding of intact HSPG, percentage ± SD of control ([3]; addition 0.1 mM): 44 ± 14.6% | inhibition of HSPG binding to fibronectin ([3]; test compound 0.1 mM): 55%
Compound: [Cl-].[Cl-].[Zn+2] [ZnCl2]

Activity: binding of intact HSPG, percentage ± SD of control ([1]; addition 50 μg/ml): 76.3 ± 9.5% | Activity: binding of intact HSPG, percentage ± SD of control ([2]; addition 50 μg/ml): 103.7 ± 14.5% | Activity: binding of intact HSPG, percentage ± SD of control ([3]; addition 50 μg/ml): 33.4 ± 18.4% | inhibition of HSPG binding to immobilized fibronectin [3]: 65% | interference with HSPG binding to the AAPs ([4]; test compound 50 μg/ml in solution, the AAPs): only moderately interferes
Compound: Fibronectin: Fibronectin from bovine plasma (Sigma), added in solution as test compound

Activity: binding of intact HSPG, percentage ± SD of control ([1]; addition 4 mg/ml): 110 ± 15.3% | Activity: binding of intact HSPG, percentage ± SD of control ([2]; addition 4 mg/ml): 110 ± 24.2% | Activity: binding of intact HSPG, percentage ± SD of control ([3]; addition 4 mg/ml): 107 ± 10.8% | effect on HSPG binding to any AAP protein tested (negated sentence: 'Neither ... had any effect') [4]: had any effect
Compound: chondroitin sulfate

— patent publication US5164295A, “Method for identifying amyloid protein-extracellular matrix protein affinity altering compounds” (The Upjohn Company, priority 1991, dated 1992)
